Consider 1 compound from US7763580B2, “Methods for treating conditions associated with the accumulation of excess extracellular matrix” (University of Utah Research Foundation, priority 1999, dated 2010).

Experiment [1] has as its system Normal fetal human mesangial cells. As to the kind of experiment: Renin-induced TGFβ production by fetal human mesangial cells (ELISA). Format: cell-based. Particulars: 10^−5 M inhibitor added at zero time with 10^−7 M human recombinant renin, FIG. 3. The procedure: Normal fetal human mesangial cells (Clonetics Corp., Clonetics, Walkersville, Md.) passaged 5 to 8 times, were plated (3,000 cell/cm^2) in 12 well plates in 2 ml of medium (Mesangial Basal Medium (Clonetics Corp.) containing 5% FCS, 10 μg/ml penicillin and 100 μg/ml streptomycin) and allowed to grow to confluence for 48 hours at 37EC, 5% CO2. Cultures were washed three times using sterile phosphate buffered saline at room temperature and then 2 ml/well of serum free MBM medium to induce quiescence. After 48 hours, the serum-free medium was removed and 2 ml/well of fresh serum-free medium was added. Human recombinant renin (Hoffman-La Roche Ltd., Basel, Switzerland) in concentrations from 10^−6 to 10^−12 M was added to each well. A blank and 5 ng/ml of TGFβ (R & D Systems, Minneapolis, Minn.) were used as controls. Cells and supernatants were harvested by centrifugation after 24 hrs of culture and frozen at ^−70EC until analysis. The total production and release of TGFβ into the culture supernatant was measured using an ELISA kit (R & D Systems). Induction of PAI-1 and fibronectin in the supernatant are also measured using anti-PAI-1 and anti-fibronectin antibodies in an ELISA to provide further confirmation of the inhibition of TGFβ. TGFβ, fibronectin and PAI-1 mRNA are measured using semi-quantitative RT-PCR.
Renin inhibitor Ro42-5892 (Hoffman-LaRoche, Basel, Switzerland), Losartan™ (Merck Pharmaceuticals, West Point, Pa.), Enalapril™ (Sigma Chemical Co., St. Louis, Mo., Prod. No. E6888), or TGFβ1 neutralizing antibody (R & D Systems) were added in the amounts indicated below to separate wells in triplicate to block the renin cascade at different sites after stimulation by renin: • 10^−5 M Renin Inhibitor R042-5892 (Hoffman-LaRoche) • 30 ng/ml Anti-TGFβ1 antibody (R & D Systems, #AB 101 NA) • 30 ng/ml Chicken IgG (control for anti-TGFβ1 antibody, R & D Systems, # AB 101 C) • 10^−5 M Enalapril™ (Sigma Chemical Co., St. Louis, Mo.) • 10^−5 M Losartan™ (Merck Pharmaceuticals, West Point, Pa.)
These inhibitors were added at zero time with 10^−7 M human recombinant renin (Hoffman-LaRoche).
Background: An ELISA detects its analyte on a solid surface through an enzyme-linked reagent.

Experiment [2] deals with anti-Thy 1 glomerulonephritis. As to the kind of experiment: Glomerular p-Smad2 (Western blot). Format: in vivo, Sprague Dawley rats. Particulars: enalapril alone. The protocol: These experiments were performed on male Sprague Dawley rats (200-250 g) obtained from the Sasco colony of Charles River Laboratories (Wilmington, Mass., USA). Animal housing and care were in accordance with the NIH Guide for the Care and Use of Laboratory Animals, NIH Publication No. 85-23, 1985. Animals were fed a normal protein diet (22% protein, Teklad No. 86 550, Teklad Premier Laboratory Diets, Madison, Wis., USA). Glomerulonephritis was induced by tail vein injection of 2.25 mg/Kg of the monoclonal anti-Thy 1.1 antibody OX-7 (NCCC, Biovest International Inc, Minneapolis, Minn., USA). OX-7 binds to a Thy 1-like epitope on the surface of mesangial cells causing complement-dependent cell lysis followed by fibrotic tissue repair (Bagchus et al., Lab Invest. 55:680-687 (1986)). Control animals were injected with similar volumes of phosphate-buffered saline (PBS). Groups of 8 rats were assigned and treated as outlined in Table 2. […] Bound antibodies were detected by developing the blot in ECL™ Western blotting detection reagents (Amersham Pharmacia Biotech) for 1 min. Quantitation of the bands on autoradiograms was performed using a BIO-RAD GS-700 imaging densitometer. Changes in p-Smad2 levels were determined by correcting for the densitometric intensity of β-actin for each sample. […] The percent reduction in disease severity in a treated group was calculated as: […]
(In general: In western blotting, separated proteins are transferred to a membrane and probed.)

For `CCOC(=O)[C@H](CCc1ccccc1)N[C@@H](C)C(=O)N1CCC[C@H]1C(=O)O` [enalapril], in experiment [1], the “renin-induced increase in TGFβ production” value is listed as “does not reduce the renin-induced increase in TGFβ production”. For the same compound, in experiment [2], the “reduction of Smad2 activation (p-Smad2)” value is on record as 36%.
